Data on 5 compounds can be found in patent publication US20250195502A1, “APPLICATION OF TETRACYCLIC COMPOUND IN TREATMENT OF TUMORS” (SHANGHAI SHIJIANG BIOTECHNOLOGY CO., LTD, priority 2022, published 2025).

Common to all, as to type: cell-based
The test system of assay [1] is 786-O (clear cell renal cell adenocarcinoma cell). Briefly: Cell viability assay (Promega CellTiter-Glo), inhibitory effect on 786-O. The conditions noted are these: Homo sapiens, 786-0, 72 h, 3 days of culture. Summed up: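 Cell viability determined from ATP content (CellTiter-Glo) after 3-day exposure to compound dilution series, giving IC50. Cells: 786-O clear cell renal adenocarcinoma line in 10% FBS-containing RPMI1640 (+P/S).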
On the technique in general: ATP-based viability assays read luminescence as a measure of living cells.

The subject of assay [2] is CFPAC-1 (human pancreatic cancer cell). Put plainly: Cell viability assay (Promega CellTiter-Glo), inhibitory effect on CFPAC-1. The conditions noted are these: 72 h, 3 days of culture. Summed up: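 Viability readout via ATP content (CellTiter-Glo) after 3-day exposure to gradient-diluted compounds; IC50 reported. Cells: CFPAC-1, grown in IMDM plus 10% fetal bovine serum.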

Assay [3] deals with NB-1 (brain neuroblastoma cell). Briefly: Cell viability assay (Promega CellTiter-Glo), inhibitory effect on NB-1. The conditions noted are these: Homo sapiens, 72 h, 3 days of culture, read-out: inhibitory effect on brain cell line NB-1 (IC50). Put shortly: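 NB-1 cells grown in L-15 medium with 10% FBS were exposed to serially diluted compounds for 3 days after passage. Viability was read as intracellular ATP by CellTiter-Glo luminescence. IC50 was taken as the concentration giving 50% inhibition.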

For assay [4], the system named is NCI-H82 (human small cell lung cancer cell). Put plainly: Cell viability assay (Promega CellTiter-Glo), inhibitory effect on NCI-H82. The conditions noted are these: 72 h, 3 days of culture. Put shortly:
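After 3 days of culture with graded compound doses, ATP-based luminescence (CellTiter-Glo) gave the viability of human small cell lung cancer NCI-H82 cells, maintained in 10% FBS-containing RPMI1640. IC50 is the 50% inhibiting concentration.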

Assay [5] concerns ov-NNMT NCI-H82 cell (NNMT protein-overexpressing NCI-H82). Put plainly: Cell viability assay (Promega CellTiter-Glo), inhibitory effect on ov-NNMT NCI-H82 cell. The conditions noted are these: Homo sapiens. Summed up: (§1)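 Viability measured by CellTiter-Glo in three NCI-H82 variants: empty-vector control, viral NNMT overexpression, and viral shRNA DNMT1 knockdown, each checked by Western blot.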

In assay [6] the test system is MDA-MB-453 (breast cancer cell). Put plainly: Cell viability assay (Promega CellTiter-Glo), inhibitory effect on MDA-MB-453. The conditions noted are these: Homo sapiens, 72 h, 3 days of culture. Summed up:
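IC50 comes from ATP-based CellTiter-Glo viability measured after 3 days of exposure to graded compound concentrations. Cultures were kept in L-15 medium containing 10% fetal bovine serum.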

For assay [7], the system named is SW48 (human colon adenocarcinoma cell). Put plainly: Cell viability assay (Promega CellTiter-Glo), inhibitory effect on SW48. The conditions noted are these: 72 h, 3 days of culture. Summed up: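 IC50 derived from CellTiter-Glo ATP luminescence after 3-day culture with a compound dilution series; cells kept in Leibovitz's L-15 plus 10% fetal bovine serum.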
Assay [8] has as its system Con-NCI-H82 cell (NCI-H82 transfected with empty virus vector). Put plainly: Cell viability assay (Promega CellTiter-Glo), inhibitory effect on Con-NCI-H82 cell. The conditions noted are these: Homo sapiens; NCI-H82 transfected with empty virus vector (control); CellTiter-Glo; read-out: inhibitory effect on Con-NCI-H82 (IC50). Put shortly: as §1
Assay [9] has as its system GB-1 (human brain glioblastoma cell). Put plainly: Cell viability assay (Promega CellTiter-Glo), inhibitory effect on GB-1. The conditions noted are these: 72 h, 3 days of culture. Summed up:
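Intracellular ATP measured by CellTiter-Glo served as the viability readout for IC50, taken 3 days after adding gradient-diluted compound. Cells were kept in 10% FBS-containing DMEM.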

Assay [10] deals with D341 Med (cerebellar medulloblastoma cell). Briefly: Cell viability assay (Promega CellTiter-Glo), inhibitory effect on D341 Med. The conditions noted are these: Homo sapiens, 72 h, 3 days of culture, read-out: inhibitory effect on brain cell line D341 Med (IC50). Put shortly:
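D341 Med cells grown in EMEM with 20% FBS (+P/S) were treated with serially diluted compounds after passage. Viability after 3 days of culture was read as intracellular ATP by CellTiter-Glo luminescence, and IC50 was derived.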

Assay [11] deals with sh-DNMT1 NCI-H82 cell (DNMT1 knocked down NCI-H82). Briefly: Cell viability assay (Promega CellTiter-Glo), inhibitory effect on sh-DNMT1 NCI-H82 cell. The conditions noted are these: Homo sapiens, NCI-H82 with DNMT1 knocked down by shRNA. Put shortly: as §1
Assay [12] has as its system G-401 (human renal carcinoma Wilms cell). Briefly: Cell viability assay (Promega CellTiter-Glo), inhibitory effect on G-401. The conditions noted are these: 72 h, 3 days of culture. Put shortly:
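IC50 comes from luminescent ATP-based viability measured after 3 days of exposure to serially diluted compound. Cultures were kept in McCoy's 5a medium containing 10% fetal bovine serum.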

Assay [13] deals with Kelly (brain neuroblastoma cell). Put plainly: Cell viability assay (Promega CellTiter-Glo), inhibitory effect on Kelly. The conditions noted are these: Homo sapiens, 72 h, 3 days of culture, read-out: inhibitory effect on brain cell line Kelly (IC50). Summed up: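 Kelly cells were cultured in RPMI1640 with 10% FBS and 2 mM glutamine, then treated with serially diluted compounds for 3 days. Viability was measured as intracellular ATP by CellTiter-Glo luminescence, and IC50 was derived from the dose-response.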

Assay [14] relates to SF126 (human glioblastoma multiforme cell). Put plainly: Cell viability assay (Promega CellTiter-Glo), inhibitory effect on SF126. Put shortly:
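IC50 reflects 50% loss of CellTiter-Glo ATP signal in SF126 glioblastoma cells. Cells were cultured in 10% FBS-containing EMEM and treated with serially diluted compound for 3 days.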

Setting [15] is: Table 3, read-out: inhibitory effect on GB-1 (IC50).
The mark [16] stands for this setting: Table 4, read-out: inhibitory effect on brain cell line GB-1 (IC50).
Setting [17] is: 72 h, SF-126, 3 days of culture, Table 3, read-out: inhibitory effect on SF-126 (IC50).
[18] abbreviates: SF-126, 72 h, SF126, 3 days of culture, Table 4, read-out: inhibitory effect on brain cell line SF126 (IC50).

Each structure is given as a SMILES string. Like-named read-outs stand apart in the source and are kept apart here.

By IC50 is commonly meant the point on the concentration scale where inhibition reaches its midpoint. As to `COc1ccc2c(Cc3ccc(C(C)C)cc3)c3[n+](cc2c1OC)CCc1cc2c(cc1-3)OCO2` [compound AB31789], the IC50 in assay [1] was 2980 nM; in assay [2] it was 4510 nM; in assay [3] it was 210 nM; in [4], 300 nM; in assay [5] it was 850 nM; in [6], 310 nM. Also, the IC50 was found to be 560 nM in assay [7]; 300 nM in [8]; 3220 nM in assay [9] (setting [15]); 3220 nM in [9] (setting [16]); 510 nM in [10]; 1050 nM in [11]. The concentration for half-maximal inhibition (IC50) is 260 nM in assay [12], 460 nM in [13], 3770 nM in [14] (setting [17]) and 3770 nM in assay [14] (setting [18]).

`COc1ccc2cc3[n+](cc2c1OCC(=O)/C=C/c1ccc(C)cc1)CCc1cc2c(cc1-3)OCO2` [compound AB31790]: the IC50 in [1] came out at 4750 nM; in [2], 7820 nM; in assay [3], 230 nM; in assay [4] it was 430 nM; in assay [5], 1520 nM; in assay [6] it was 910 nM. The IC50 in assay [7] came to 420 nM; in assay [8], 430 nM; in assay [9] (setting [15]) it was 3730 nM; in [9] (setting [16]), 3730 nM; in [10] it was 260 nM; in assay [11], 1390 nM. Moreover, the IC50 in assay [12] turned out to be 820 nM; in assay [13] it was 270 nM; in assay [14] (setting [17]) it was 3260 nM; in [14] (setting [18]), 3260 nM.

On to `COc1ccc2c(Cc3ccc(C(F)(F)F)cc3)c3[n+](cc2c1OC)CCc1cc2c(cc1-3)OCO2` [compound AB31805], for which the IC50 in assay [1] was 25800 nM; in assay [2], more than 50000 nM; in assay [3] it was 1030 nM; in assay [4], 2110 nM; in assay [5], 4820 nM; in [6] it was 4110 nM. Moreover, the IC50 in assay [7] was 1350 nM; in [8], 2110 nM; in assay [9] (setting [15]) it was more than 50000 nM; in assay [9] (setting [16]), more than 50000 nM; in assay [10], 4800 nM; in assay [11] it was 6040 nM. For the same compound, the IC50 was 1840 nM in assay [12], 4820 nM in assay [13], more than 50000 nM in assay [14] (setting [17]) and more than 50000 nM in assay [14] (setting [18]).

With `COc1ccc2cc3[n+](cc2c1OCCCCCCNC(=O)OC(C)(C)C)CCc1cc2c(cc1-3)OCO2` [compound AB31808], the IC50 in assay [1] turned out to be 3900 nM; in [2], 7320 nM; in assay [3], 60 nM; in assay [4] it was 330 nM; in assay [5], 860 nM; in assay [6], 280 nM. Also, the IC50 is 390 nM in [7]; 330 nM in [8]; 5560 nM in [9] (setting [15]); 5560 nM in assay [9] (setting [16]); 430 nM in [10]; 1040 nM in [11]. Moreover, the IC50 in assay [12] is 480 nM; in [13], 1050 nM; in assay [14] (setting [17]), 4580 nM; in [14] (setting [18]) it was 4580 nM.

For `COc1ccc(CCCc2c3[n+](cc4c(OC)c(OC)ccc24)CCc2cc4c(cc2-3)OCO4)cc1` [compound AB31809], the IC50 was 7880 nM in assay [1]; 15500 nM in [2]; 160 nM in [3]; 440 nM in assay [4]; 1380 nM in [5]; 870 nM in assay [6]. Also, the IC50 in assay [7] worked out at 560 nM; in [8], 440 nM; in assay [9] (setting [15]), 11800 nM; in [9] (setting [16]), 11800 nM; in assay [10] it was 1920 nM; in [11], 1860 nM. Also, the IC50 in assay [12] was 530 nM; in [13], 990 nM; in assay [14] (setting [17]), 10100 nM; in assay [14] (setting [18]), 10100 nM.
